Where two headings read alike, the source gives them in different places.
Columns and labels:
[1] = system: Wistar rats; assay: Five Choice Serial Reaction Time Task, variable intertrial interval (vITI), acute; format: in vivo, Wistar rat; settings: for % hit rate: Compound I-4 0.1-1.0 mg/kg ip, Compound I-19 0.03-1.0 mg/kg ip; for % correct / Magazine Head Entries / Omissions / number of trials completed / perseverative responses / premature responses / response latencies (correct, incorrect) / reward latencies / timeout responses: same doses
Description: Animals were trained in eight automated 5C-SRTT operant chambers (Med Associates, St. Albans, VT, USA), controlled by MedPC software (Med Associates). Briefly, each operant chamber was equipped with 5 apertures containing a photocell beam to detect nose pokes and a lamp (2.8 W) that could be illuminated randomly at varying durations. Food pellets (45 mg chow pellet, BioServ, Frenchtown, NJ, USA) were delivered automatically to a magazine, located on the opposite wall to the nose pokes, that was also equipped with a light that turned on to indicate that a pellet had been dispensed. The house-light remained on for the entire session unless an error or omission occurred. Training sessions began with the delivery of a food reward and retrieval triggered the first trial. […] Training began with the stimulus duration set at 10 sec, a limited hold period of 5 sec and an ITI of 5 sec. […] Sessions ended when 40 minutes had lapsed or 100 trials had been completed.
Upon meeting the performance criteria, animals were assessed in the vSD version of the task where the following stimulus durations were presented in a pseudorandom manner: 0.3, 0.6 and 0.9 sec. Later, subjects were assessed in the vITI version where 2.5, 5.0 and 10.0 sec ITIs were employed in a pseudorandom manner. Performance parameters measured were: % hit ((# correct/(# correct+# incorrect including omissions))×100); % correct ((# correct/(# correct+# incorrect excluding omissions))×100); premature responses (# of nose-pokes into any aperture after trial initiation but before onset of the stimulus light); timeout responses (# of nose pokes into any aperture during a timeout period), perseverative responses (# of nose pokes occurring after the correct response had been made but before reward collection); # of food magazine head entries, omissions and total trials completed. The latency to correct response (time taken from the onset of the nose poke light stimulus to making the correct nose poke response), latency to incorrect response (time taken from onset of nose poke light stimulus to making the incorrect nose poke response), and latency to reward (i.e., the magazine latency, time taken from making a correct nose poke response to retrieving the reward from the magazine) was also recorded.
Drug doses and vehicle were administered in a pseudorandom fashion. Drug or vehicle sessions were performed 1-2 times per week with maintenance training (behavioral testing without drug or vehicle injections) interspersed.
All data were collated and entered into Microsoft Excel spreadsheets. The data were subsequently imported into StatView 5.0 for statistical analyses. One and two factor analysis of variance (ANOVA) tests were used with repeated measures when indicated, followed by Fisher LSD or Student Newman Keuls as post-hoc tests. All results were expressed as the mean (±S.E.M.). Differences between means from experimental groups were considered significant at the p<0.05 level. The statistical F values and degrees of freedom associated with the two factor ANOVA analyses are provided in the text of this report. Please refer to the statistical reports in the appendices for the values associated with one factor ANOVAs for the overall means and overall total values.

[2] = molecular target: T1, OCT1 (Homo sapiens, UniProt O15245); assay: Uptake transporter inhibition assay, OCT1 (sumatriptan)
T1 sequence (O15245 1-554): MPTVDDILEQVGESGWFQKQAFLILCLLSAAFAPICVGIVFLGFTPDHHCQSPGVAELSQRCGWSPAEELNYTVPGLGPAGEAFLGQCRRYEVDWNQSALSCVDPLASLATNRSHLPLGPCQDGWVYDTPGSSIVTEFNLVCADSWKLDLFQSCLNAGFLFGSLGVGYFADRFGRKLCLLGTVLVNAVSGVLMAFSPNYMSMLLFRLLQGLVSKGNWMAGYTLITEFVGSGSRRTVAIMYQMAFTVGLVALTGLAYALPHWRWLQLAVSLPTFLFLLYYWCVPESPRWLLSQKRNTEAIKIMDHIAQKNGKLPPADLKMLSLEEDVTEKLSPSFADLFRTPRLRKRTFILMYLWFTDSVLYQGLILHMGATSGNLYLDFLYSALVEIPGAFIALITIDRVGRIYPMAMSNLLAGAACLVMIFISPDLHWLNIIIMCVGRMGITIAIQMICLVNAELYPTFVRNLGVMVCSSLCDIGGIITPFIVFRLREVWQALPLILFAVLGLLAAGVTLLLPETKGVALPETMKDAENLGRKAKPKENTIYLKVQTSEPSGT
Description: Uptake experiments were performed using HEK293 cells stably expressing the respective uptake transporters. The assays were conducted according to the actual SOLVO uptake transporter assay protocols (PR-ASY-UPT-General Protocol for Uptake Transporter Inhibition Assays).
Cells were cultured at 37° C. in a humidified atmosphere containing 5% CO2 and were plated onto standard 96-well tissue culture plates.
Before the experiment, the medium was removed, and the cells were washed twice with 100 μL of pre-warmed (37° C.) assay buffer listed in Table 15. The cells were pre-incubated at 37° C. for 30 minutes in assay buffer containing the test article at appropriate concentrations (Table 16), appropriate solvents for solvent controls and the reference inhibitor for reference inhibitor wells. After the pre-incubation step solutions were removed. Uptake experiments were performed at 37° C. in 50 μL of assay buffer containing the probe substrate and the test article or solvent and controls.
After the experiment, cells were washed twice with 100 μL of appropriate cold buffer and lysed with 150 μL scintillation cocktail. Radiolabeled probe substrate transport was determined by liquid scintillation counting.
Uptake of the probe substrate in control cells provided background activity values for all data points.

[3] = 0.14 μM nominal, 0.09 μM NSB corrected, follow-up assay
[4] = 1.24 μM nominal, 0.86 μM NSB corrected, follow-up assay
[5] = 10.00 μM nominal, 6.60 μM NSB corrected
[6] = 11.11 μM nominal, 7.89 μM NSB corrected, follow-up assay
[7] = 33.33 μM nominal, 24.33 μM NSB corrected, follow-up assay
[8] = 100.00 μM nominal, 77.00 μM NSB corrected
[9] = 100.00 μM nominal, 100.00 μM NSB corrected, follow-up assay
[10] = […] nominal, 1.89 μM NSB corrected, follow-up assay
[11] = 0.04 μM nominal, sumatriptan, IC50 determination, Table 122
[12] = 0.12 μM nominal, sumatriptan, IC50 determination, Table 122
[13] = 1.11 μM nominal, sumatriptan, IC50 determination, Table 122
[14] = 3.00 μM nominal, sumatriptan, Table 121
[15] = 10.00 μM nominal, sumatriptan, IC50 determination, Table 122
[16] = 30.00 μM nominal, sumatriptan, IC50 determination, Table 122
[17] = 30.00 μM nominal, sumatriptan, Table 121

Clc1ccc(C2(OCC3OCCO3)c3ccccc3C3=NCCN32)cc1 (centres unmarked) [Compound I-19]
% hit rate [1]: modest decrease in the % hit rate
% correct [1]: no statistically significant dose-related effects
Magazine Head Entries [1]: decrease in the number of premature responses, timeout responses, and magazine head entries
Omissions [1]: increase in the number of omissions
number of trials completed [1]: not significantly affected
perseverative responses [1]: no statistically significant effects on perseverative responses
premature responses [1]: decreases in the number of premature responses
response latencies (correct, incorrect) [1]: modest increases in the response latencies
reward latencies [1]: not significantly affected
timeout responses [1]: decrease in the number of premature responses, timeout responses, and magazine head entries
Relative inhibition [2, 3]: 16%
Relative transporter specific accumulation [2, 3]: 84.03 ± 3.76 % of control
Transporter specific accumulation [2, 3]: 896.33 ± 19.14 cpm
Relative inhibition [2, 4]: 39%
Relative transporter specific accumulation [2, 4]: 61.16 ± 2.59 % of control
Transporter specific accumulation [2, 4]: 652.33 ± 10.37 cpm
Relative inhibition [2, 5]: 71%
Relative transporter specific accumulation [2, 5]: 29.35 ± 0.48 % of control
Transporter specific accumulation [2, 5]: 930.00 ± 10.03 cpm
Relative inhibition [2, 6]: 73%
Relative transporter specific accumulation [2, 6]: 27.13 ± 1.77 % of control
Transporter specific accumulation [2, 6]: 289.33 ± 15.11 cpm
Relative inhibition [2, 7]: 86%
Relative transporter specific accumulation [2, 7]: 14.47 ± 0.94 % of control
Transporter specific accumulation [2, 7]: 154.33 ± 8.03 cpm
Relative inhibition [2, 8]: 92%
Relative transporter specific accumulation [2, 8]: 8.17 ± 0.48 % of control
Transporter specific accumulation [2, 8]: 259.00 ± 14.94 cpm
Relative inhibition [2, 9]: 92%
Relative transporter specific accumulation [2, 9]: 7.84 ± 1.11 % of control
Transporter specific accumulation [2, 9]: 83.67 ± 11.38 cpm
maximum inhibition of OCT1-mediated sumatriptan accumulation ([2]; 2-concentration assay, 100 μM (Compound A 30 μM)): 92%
Maximum % inhibition ([2]; OCT1, HEK293 cells, sumatriptan (10 μM), NIO: no inhibition observed): 92%
Relative inhibition [2, 10]: 55%
Relative transporter specific accumulation [2, 10]: 45.47 ± 2.44 % of control
Transporter specific accumulation [2, 10]: 485.00 ± 17.73 cpm
maximum inhibition of OCT1-mediated sumatriptan accumulation ([2]; follow-up assay): 92%
IC50 ([2]; follow-up assay, NSB-corrected concentrations for Compound I-19): 3320 nM

OC1(c2ccc(Cl)cc2)c2ccccc2C2=NCCN21 (centres unmarked) [Compound A, 5-(4-chlorophenyl)-2,3-dihydroimidazo[1,2-b]isoindol-5-ol, reference compound]
IC50 [2]: 2310 nM
Relative transporter specific accumulation [2, 11]: 91.36 ± 5.98 % of control
Transporter specific accumulation [2, 11]: 881.00 ± 27.83 cpm
Relative transporter specific accumulation [2, 12]: 73.95 ± 5.69 % of control
Transporter specific accumulation [2, 12]: 713.17 ± 36.62 cpm
Relative transporter specific accumulation [2, 13]: 65.12 ± 6.84 % of control
Transporter specific accumulation [2, 13]: 628.00 ± 55.27 cpm
Relative transporter specific accumulation [2, 14]: 51.27 ± 1.85 % of control
Transporter specific accumulation [2, 14]: 484.33 ± 16.61 cpm
Relative transporter specific accumulation [2, 15]: 25.23 ± 3.64 % of control
Transporter specific accumulation [2, 15]: 243.33 ± 32.16 cpm
Relative transporter specific accumulation [2, 16]: 14.03 ± 4.75 % of control
Transporter specific accumulation [2, 16]: 135.33 ± 45.14 cpm
Relative transporter specific accumulation [2, 17]: 15.00 ± 1.09 % of control
Transporter specific accumulation [2, 17]: 141.67 ± 10.22 cpm
inhibition at 10 µM ([2]; human, Maximum % inhibition, OCT1, HEK293 cells, sumatriptan (10 μM), NIO: no inhibition observed): 86%
inhibition at 0.04 μM ([2]; human, Relative Inhibition, 0.04 μM nominal, sumatriptan, IC50 determination, Table 122): 9%
inhibition at 0.12 μM ([2]; human, Relative Inhibition, 0.12 μM nominal, sumatriptan, IC50 determination, Table 122): 26%
inhibition at 1.11 μM ([2]; human, Relative Inhibition, 1.11 μM nominal, sumatriptan, IC50 determination, Table 122): 35%
inhibition at 10 µM ([2]; human, Relative Inhibition, 10.00 μM nominal, sumatriptan, IC50 determination, Table 122): 75%
inhibition at 30 μM ([2]; human, Relative Inhibition, 30.00 μM nominal, sumatriptan, IC50 determination, Table 122): 86%
inhibition at 3 μM ([2]; human, Relative inhibition, 3.00 μM nominal, sumatriptan, Table 121): 49%
inhibition at 30 μM ([2]; human, Relative inhibition, 30.00 μM nominal, sumatriptan, Table 121): 85%

COCCOC1(c2ccc(Cl)cc2)c2ccccc2C2=NCCN21 (centres unmarked) [Compound I-4]
% hit rate [1]: modest decrease in the % hit rate
% correct [1]: no statistically significant dose-related effects
Magazine Head Entries [1]: decreases in the number of premature responses, timeout responses, and magazine head entries
Omissions [1]: increase in the number of omissions
number of trials completed [1]: the number of trials completed was not affected
perseverative responses [1]: no statistically significant effects on perseverative responses
premature responses [1]: decrease in the number of premature responses
response latencies (correct, incorrect) [1]: increases in the response and reward latencies
reward latencies [1]: increases in the response and reward latencies
timeout responses [1]: decreases in the number of premature responses, timeout responses, and magazine head entries
